Where two headings read alike, the source gives them in different places.

The target of assay [1] is T1, human 5-HT1A receptor subtype (Homo sapiens, UniProt P08908).
T1 construct: expressed in transfected cells
T1 sequence (P08908 1-422): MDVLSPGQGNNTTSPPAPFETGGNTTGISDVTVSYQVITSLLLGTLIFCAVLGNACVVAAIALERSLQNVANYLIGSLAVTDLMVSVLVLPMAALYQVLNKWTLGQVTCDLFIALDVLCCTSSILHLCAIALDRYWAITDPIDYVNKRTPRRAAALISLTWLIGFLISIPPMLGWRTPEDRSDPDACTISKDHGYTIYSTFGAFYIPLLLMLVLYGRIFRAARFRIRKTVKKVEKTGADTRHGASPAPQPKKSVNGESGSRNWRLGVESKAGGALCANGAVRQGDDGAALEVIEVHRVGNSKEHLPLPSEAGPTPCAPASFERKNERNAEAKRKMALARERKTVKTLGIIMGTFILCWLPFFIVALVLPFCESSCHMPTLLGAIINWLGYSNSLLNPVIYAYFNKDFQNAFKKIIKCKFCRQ
The experiment in a line: 5-HT1A receptor binding assay with [3H]8-OH-DPAT on CHO cell membranes. The conditions noted are these: [3H]8-OH-DPAT 1.5 nM. How it is done: (§1) The PCR cloning of the human 5-HT1A receptor subtype from a human genomic library has been described previously Chanda et al., Mol. Pharmacol., 43:516 (1993). A stable Chinese hamster ovary cell line expressing the human 5-HT1A receptor subtype (5-HT1A.CHO cells) was employed throughout this study. Cells were maintained in DMEM supplemented with 10% foetal calf serum, non-essential amino acids and penicillin/ streptomycin.
Cells were grown to 95-100% confluency as a monolayer before membranes were harvested for binding studies. Cells were gently scraped from the culture plates, transferred to centrifuge tubes, and washed twice by centrifugation (2000 rpm for 10 min., 4°C) in buffer (50 mM Tris; pH 7.5). The resulting pellets were aliquoted and placed at -80°C. On the day of assay, the cells were thawed on ice, and resuspended in buffer. Studies were conducted using [^3H]8-OH-DPAT as the radioligand. The binding assay was performed in 96 well microtiter plates in a final total volume of 250 µL of buffer. Competition experiments were performed by using 7 concentrations of unlabelled drug and a final ligand concentration of 1.5 nM. Nonspecific binding was determined in the presence of 10 µM 5HT. Saturation analysis was conducted by using [^3H]8-OH-DPAT at concentrations ranging from 0.3-30 nM. Following a 30 minute incubation at room temperature, the reaction was terminated by the addition of ice cold buffer and rapid filtration using a M-96 Brandel Cell Harvester (Gaithersburg, MD) through a GF/B filter presoaked for 30 minutes in 0.5% polyethyleneimine.

Assay [2] addresses T2, 5-HT1A cloned receptor membrane fragments (Homo sapiens, UniProt P08908).
T2 construct: expressed in transfected cells
T2 sequence (P08908 1-422): T1 sequence (P08908 1-422)
The experiment in a line: [35S]-GTPγS binding assay. The assay is classed as biochemical. The note with it: read-out: GTPγS (%EMax). How it is done: The [^35S]-GTPγS binding assay was similar to that used by Lazareno and Birdsall, Br. J. Pharmacol. 109:1120 (1993). Briefly, 5-HT1A cloned receptor membrane fragments (as used for 5-HT1A receptor binding assays) were stored at -70°C until needed. When needed, membranes were rapidly thawed, centrifuged at 40,000 x g for 10 minutes and resuspended at 4 °C for 10 minutes in assay buffer (25 mM HEPES, 3 mM MgCl2, 100 mM NaCl, 1 mM EDTA, 10 uM GDP, […], pH 8.0). These membranes were then incubated for 30 minutes at 30°C with [^35S]GTPgS (1 nM) in the presence of vehicle, test compound (one to eight concentrations), or excess 8-OH-DPAT to define maximum agonist response. All reactions are terminated by the addition of ice cold Tris buffer followed by rapid filtration using a Tom Tech® filtration device to separate bound from free [^35S]GTPgS. Agonists produce an increase in the amount of [^35S]GTPgS bound whereas antagonists produce no increase in binding. Bound radioactivity was counted and analyzed as above.
For orientation: Binding of GTPγS marks nucleotide exchange on a G protein.

The target in assay [3] is T3, human 5-HT1A receptor subtype (5-HT1A.CHO cells) (Homo sapiens, UniProt P08908).
T3 construct: expressed in transfected cells
T3 sequence (P08908 1-422): T1 sequence (P08908 1-422)
The experiment in a line: cAMP formation in forskolin-treated cells (cAMP SPA assay). The note with it: value in brackets; forskolin 1 uM. The assay is classed as cell-based. How it is done:
as §1
The following assays were performed by incubating the cells with DMEM containing 25 mM HEPES, 5 mM theophylline and 10 µM pargyline for a period of 20 minutes at 37°C. Functional activity was assessed by treating the cells with forskolin (1 uM final concentration) followed immediately by test compound (6 concentrations) for an additional 10 minutes at 37°C. In separate experiments, 6 concentrations of antagonist were preincubated for 20 minutes prior to the addition of 10 nM 8-OH-DPAT and forskolin. The reaction was terminated by removal of the media and addition of 0.5 ml ice cold assay buffer. Plates were stored at -20°C prior to assessment of cAMP formation by a cAMP SPA assay (Amersham).

[4] abbreviates: value in brackets, or a lone % in the cell, maximum agonist response defined by excess 8-OH-DPAT.

`Cc1[nH]c2ccccc2c1[C@H]1CC[C@@H](N2CCN(c3cccc4[nH]ccc34)CC2)CC1` [Example 9a, 3-[cis-4-[4-(1H-Indol-4-yl)-1-piperazinyl]cyclohexyl] -2-methyl-1H-indole] yielded a Ki in assay [1] of 87.1 nM.

The compound `Cc1[nH]c2ccccc2c1[C@H]1CC[C@H](N2CCN(c3cccc4[nH]ccc34)CC2)CC1` [Example 9b, 3-[trans-4-[4-(1H-Indol-4-yl)-1-piperazinyl]cyclohexyl] -2-methyl-1H-indole] came in with a Ki in assay [1] of 13 nM. `Fc1ccc2c(c1)[nH]cc2[C@H]1CC[C@@H](N2CCN(c3cccc4[nH]ccc34)CC2)CC1` [Example 4a, 6-Fluoro-3-[cis-4-[4-(1H-indol-4-yl)-1-piperazinyl]cyclohexyl]-1H-indole] showed a Ki in assay [1] of 33.5 nM. In addition, the Emax in assay [2] (setting [4]) and in assay [3] was 0% in each case.

Consider `Fc1cccc2[nH]cc([C@H]3CC[C@H](N4CCN(c5cccc6[nH]ccc56)CC4)CC3)c12` [Example 2b, 4-Fluoro-3-[trans-4-[4-(1H-indol-4-yl)-1-piperazinyl]cyclohexyl]-1H-indole], for which the Ki in assay [1] is 22.3 nM. That is a double-digit nanomolar value. The same measure, in the same setting: the result for `Fc1cccc2[nH]cc([C@H]3CC[C@@H](N4CCN(c5cccc6[nH]ccc56)CC4)CC3)c12` [Example 2a, 4-Fluoro-3-[cis-4-[4-(1H-indol-4-yl)-1-piperazinyl]cyclohexyl]-1H-indole] reads 117 nM. As for `COc1cc(N2CCN([C@H]3CC[C@@H](c4c[nH]c5ccc(C#N)cc54)CC3)CC2)c2ncccc2c1` [Example 44c, 3-{(1,4-cis)-4-[4-(6-Methoxy-quinolin-8-yl)-piperazin-1-yl]-cyclohexyl}-1H-indole-5-carbonitrile], the Emax in assay [2] (setting [4]) and in assay [3] was 0% each time. In turn, `Clc1ccc2[nH]cc([C@H]3CC[C@H](N4CCN(c5cccc6[nH]ccc56)CC4)CC3)c2c1` [Example 6b, 5-Chloro-3-[trans-4-[4-(1H-indol-4-yl)-1-piperazinyl]cyclohexyl]-1H-indole] displayed a Ki in assay [1] of 58.3 nM.

Regarding `N#Cc1ccc2[nH]cc([C@H]3CC[C@@H](N4CCN(c5cccc6[nH]ccc56)CC4)CC3)c2c1` [Example 7a, 3-{4-[(1,4-cis)-4-(1H-indol-4-yl)-piperazinyl-1-yl]cyclohexyl} -1H-indole-5-carbonitrile], in assay [3], the Emax was found to be 0%. In the case of `COc1ccc2[nH]cc([C@H]3CC[C@H](N4CCN(c5cccc6[nH]ccc56)CC4)CC3)c2c1` [Example 8b, 5-Methoxy-3-[trans-4-[4-(1H-indol-4-yl)-1-piperazinyl]cyclohexyl]-1H-indole], the Ki in assay [1] was determined as 2.87 nM. Further, the Emax came out at 32% in assay [2] (setting [4]) and 77% in assay [3].

For `Fc1ccc2[nH]cc([C@H]3CC[C@H](N4CCN(c5cccc6cccnc56)CC4)CC3)c2c1` [Example 27b, 8-{4-[(1,4-trans)-4-(5-Fluoro-1H-indol-3-yl)-cyclohexyl] -piperazin-1-yl}-quinoline], the maximum response (Emax) in assay [2] was 66%. Compound `Fc1ccc2[nH]cc([C@H]3CC[C@H](N4CCN(c5cccc6[nH]ccc56)CC4)CC3)c2c1` [Example 3b, 5-Fluoro-3-[trans-4-[4-(1H-indol-4-yl)-1-piperazinyl]cyclohexyl]-1H-indole] registered a Ki in assay [1] of 4.62 nM. The Emax is 51% in assay [2] and 0% in assay [3]. In turn, `Fc1ccc2c(c1)[nH]cc2[C@H]1CC[C@H](N2CCN(c3cccc4[nH]ccc34)CC2)CC1` [Example 4b, 6-Fluoro-3-[trans-4-[4-(1H-indol-4-yl)-1-piperazinyl]cyclohexyl]-1H-indole] displayed a Ki in assay [1] of 5.45 nM. The Emax in assay [3] came out at 7.5%. Turning to `Fc1ccc2c(c1)[nH]cc2[C@H]1CC[C@@H](N2CCN(c3cccc4c3OCCO4)CC2)CC1` [Example 25a, 3-{(1,4-cis)-4-[4-(2,3-Dihydro-benzo[1,4]dioxin-5-yl)-piperazin-1-yl]-cyclohexyl}-6-fluoro-1H-indole], the Emax in assay [2] worked out at 9%. For the compound `Cn1cc([C@H]2CC[C@@H](N3CCN(c4cccc5cccnc45)CC3)CC2)c2cc(F)ccc21` [Example 28, 8-{4-(1,4-cis)-4-[4-(5-Fluoro-1-methyl-1H-indol-3-yl)-cyclohexyl] -piperazin-1-yl}-quinoline], the Emax in assay [2] and in assay [3] was 0% each time. Regarding `N#Cc1ccc2[nH]cc([C@H]3CC[C@@H](N4CCN(c5cccc6cccnc56)CC4)CC3)c2c1` [Example 29a, 3-[(1,4-cis)-4-(4-Quinolin-8-yl-piperazin-1-yl)-cyclohexyl] -1H-indole-5-carbonitrile], in assay [2], the Emax stood at 23%. Consider `COc1ccc2[nH]cc([C@H]3CC[C@@H](N4CCN(c5cccc6[nH]ccc56)CC4)CC3)c2c1` [Example 8a, 5-Methoxy-3-[cis-4-[4-(1H-indol-4-yl)-1-piperazinyl]cyclohexyl]-1H-indole], for which the inhibitory constant (Ki) in assay [1] was 60.3 nM. For the same compound, the Emax in assay [2] (setting [4]) and in assay [3] was 0% in each case. For `Fc1ccc2[nH]cc([C@H]3CC[C@@H](N4CCN(c5cccc6c5OCCO6)CC4)CC3)c2c1` [Example 24a, 3-{(1,4-cis)-4-[4-(2,3-Dihydro-benzo[1,4]dioxin-5-yl)-piperazin-1-yl]-cyclohexyl}-5-fluoro-1H-indole], the Emax in assay [2] is 15.4%. As to `c1cc(N2CCN([C@H]3CC[C@@H](c4c[nH]c5ccccc54)CC3)CC2)c2cc[nH]c2c1` [Example 1a, 3-[cis-4-[4-(1H-Indol-4-yl)-1-piperazinyl]cyclohexyl]-1H-indole], in assay [1], the Ki is 32 nM. The maximum response (Emax) in assay [2] (setting [4]) and in assay [3] was 0% each time. Turning to `Fc1ccc2[nH]cc([C@H]3CC[C@H](N4CCN(c5cccc6c5OCCO6)CC4)CC3)c2c1` [Example 24b, 3-{(1,4-trans)-4-[4-(2,3-Dihydro-benzo[1,4]dioxin-5-yl)-piperazin-1-yl]-cyclohexyl}-5-fluoro-1H-indole], the Emax in assay [2] was 73%.

With `c1cc(N2CCN([C@H]3CC[C@@H](c4c[nH]c5ncccc54)CC3)CC2)c2cc[nH]c2c1` [Example 10a, 3-{(1,4-cis)-4-[4-(1H-Indole-4-yl)-piperazin-1-yl]-cyclohexyl}-1H-pyrrolo[2,3-b]pyridine], the Emax in assay [3] stood at 0%. The compound `Fc1ccc2[nH]cc([C@H]3CC[C@@H](N4CCN(c5cccc6[nH]ccc56)CC4)CC3)c2c1` [Example 3a, 5-Fluoro-3-[cis-4-[4-(1H-indot-4-yl)-1-piperazinyl]cyclohexyl]-1H-indole] registered a Ki in assay [1] of 36.7 nM. The Emax was found to be 10% in assay [2] and 0% in assay [3]. `c1cc(N2CCN([C@H]3CC[C@H](c4c[nH]c5ccccc54)CC3)CC2)c2cc[nH]c2c1` [Example 1b, 3-[trans-4-[4-(1H-indol-4-yl)-1-piperazinyl]cyclohexyl]-1H-indole] yielded a Ki in assay [1] of 5.29 nM. The values for the Emax in assay [2] (setting [4]) and in assay [3] were 32% and 77%, respectively. Regarding `Fc1ccc2[nH]cc([C@H]3CC[C@@H](N4CCN(c5cccc6cccnc56)CC4)CC3)c2c1` [Example 27a, 8-{4-[(1,4-cis)-4-(5-Fluoro-1H-indol-3-yl)-cyclohexyl] -piperazin-1-yl}-quinoline], the figures for the maximal response (Emax) in assay [2] and in assay [3] were 20% and 0%, respectively.

As usually defined, the Ki is a dissociation constant, usually derived from enzyme kinetics or from competition with a known ligand. The low end stands for higher affinity, the high end for lower affinity. As usually defined, the Emax is the maximal effect, on the per cent scale that the assay sets.

Values taken from patent publication EP1147083B1, “ARYLPIPERAZINYL-CYCLOHEXYL INDOLE DERIVATIVES FOR THE TREATMENT OF DEPRESSION” (Wyeth, priority 1999, dated 2000).
